# Legend:
# [1] = system: NKG2DL mRNA in colon cancer cell lines; test: qRT-PCR of NKG2DL mRNA; format: cell-based, human; conditions: relative to DMSO
# Description: For qRT-PCR, total RNA was extracted from untreated or drug-treated tumor cells by using the RNA Clean & Concentrator (Zymo Research). All cDNA was generated by using the SuperScript VILO cDNA Synthesis kit (Life Technologies) and diluted 10-fold for analysis using the 7900HT Fast Real-time PCR System (Applied Biosystems). The data were calculated as the CT of target genes normalized to the CT of GAPDH of each sample. […] Differentially expressed transcripts were analyzed by ANOVA on Spotfire program.
# [2] = system: HCT116, HT29, and CAL27 cells; test: in vitro cell invasion assay (ECM-coated Transwell); format: cell-based, human; conditions: HCT116, HT29, CAL27
# Description: The number of cells that invaded the ECM was determined after 24 h. Data are expressed as percentage change in tumor invasion relative to that of DMSO-treated cells (n=3). (D) Wound healing by DMSO- and SPIR-treated HCT116, HT29, and CAL27 cells was compared. Data are calculated as the percentage change in distance of migration relative to that of DMSO-treated cells (n=3). […] Tumor xenografts and lung metastases were detected by bioluminescence imaging on day 25. Data are shown as the average total flux (photons/second)±standard deviation (n=8). (F) The lung metastases (arrows) were confirmed by examining lung tissue sections. * P≤0.05, ** P<0.01, *** P<0.005, **** P<0.0001.
# The invasiveness of the tumor cells was determined by using the CytoSelect 96-well Cell Invasion Assay with Basement Membrane (Cell Biolabs) according to the manufacturer instructions.
# [3] = system: HCT116 cells, hepatic metastasis; test: hepatic metastasis model (intrasplenic HCT116); format: in vivo, NSG mice; conditions: i.p. every other day
# Description: (B) HCT116 cells were transfected with control KD or RXR-gamma-KD1 siRNA on day 0. […] The mRNA expression of TIMP2 and TIMP3 was analyzed by qRT-PCR on day 5. Data are shown as relative mRNA fold change of SPIR-treated RXR-gamma-KD1 cells to control KD cells (n=3). (C) HCT116 cells were transfected with control KD or RXR-gamma-KD1 siRNA on day 0. […] Data are calculated as the percentage change in distance of migration relative to that of DMSO-treated cells (n=3). (D) HCT116 cells were transfected with control KD, RXR-gamma-KD1, TIMP2-KD or TIMP3-KD siRNA on day 0. […] The number of cells that invaded the ECM was determined after 36 h. Data are expressed as percentage change in tumor invasion relative to that of DMSO-treated cells (n=3). (E) HCT116 cells were transfected with control-KD, TIMP2-KD or TIMP3-KD siRNA on day 0. […] Hepatic metastasis was analyzed by performing bioluminescence imaging on day 10.* P<0.05, ** P<0.005, *** P<0.0001.
# Luciferase-expressing HCT116 and HT29 cells were generated by lentiviral transduction of the cells with a CMV promoter-driven luciferase expression construct engineered from the pLL3.7 vector. […] Bioluminescence imaging was performed in a Xenogen imaging system to monitor tumor growth and the data were analyzed using Living Image software (Caliper LifeSciences). […]
# [4] = system: colon cancer cell lines (NKL or primary NK cells as effectors); test: NK cell cytotoxicity assay (BATDA release); format: cell-based, human
# Description: (A) NKL cells express high level of NKG2D but not NKp30 on their cell surface as determined by flow cytometry. Results are representative of two independent experiments. Therefore, the use of anti-NKp30 in NKL killing assay described in 2 F below was considered as a non-specific IgG blockade relative to anti-NKG2D. […] (D) HCT116 cells transduced with control or a ULBP2-overexpressing lentiviral construct were analyzed by flow cytometry for the surface expression of ULBP2. Results are representative of two independent experiments. (E) NK cell cytotoxicity on the ULBP2-transduced HCT116 cells was determined by a BATDA release assay using NKL cells as effector cells (n=3). (F) DMSO- or SPIR-treated (3 days) HCT116 cells were subjected to a BATDA release assay using NKL cells in the presence or absence of anti-NKp30 or anti-NKG2D antibodies (10 μg/mL) (n=3). (G) DMSO- or SPIR-treated (3 days) HCT116 cells were subjected to a BATDA release assay using IL-2 (10 U/ml)-primed primary NK cells isolated from healthy donors at various E:T ratios in the presence or absence of anti-NKp30 or anti-NKG2D antibodies (10 μg/mL) (n=3). * P<0.05, ** P<0.005, *** P<0.0001.
# The results were calculated as follows: […]
# [5] = system: soluble ULBP2 from HCT116 cells; test: ULBP2 ELISA (shedding to culture supernatant); format: cell-based, human; conditions: 56 μM, 3 days
# Description: ULBP2 shed from cell surface to the culture supernatant was detected by ELISA method as described before (Waldhauer & Steinle. 2006. Cancer research 66:2520-2526). 100 μl (triplicate) of cultured supernatant was added into a 96-well plate pre-coated with 1 μg/ml of mouse anti-ULBP2 (BUMO1) and incubated at 4° C. overnight. The plate was washed and then incubated with mouse anti-ULBP2 (IgG2a, 100 μl/well at 1 μg/ml) for 1 h followed by incubation with HRP-conjugated goat anti-mouse IgG2a for 1 h at room temperature. TMB substrate was added and the plate was read using Victor^2 plate reader (Perkin Elmer).
# MMP-1 = MMP-1 activity in culture supernatant; format: cell-based, human; conditions: culture supernatant from HT29 and CAL27 cells
# [6] = system: MMP-1, 7, 10, 12, and 13 in CAL27 cells; test: RT-qPCR of MMP mRNA; format: cell-based, human; conditions: 3 days
# Description: Data were normalized to GAPDH mRNA levels and presented as fold change relative to the mRNA expression in DMSO treated cells (n=3). * P<0.005, ** P<0.001.
smiles,measurement,setting,value
"CC(=O)S[C@@H]1CC2=CC(=O)CC[C@]2(C)[C@H]2CC[C@@]3(C)[C@@H](CC[C@@]34CCC(=O)O4)[C@H]12 [SPIR, spironolactone]",NKG2DL mRNA levels,[1],increase in mRNA levels
same,invasion through ECM-coated membranes,[2],significantly suppressed invasion
same,hepatic tumor metastasis,[3],significantly suppresses tumor metastasis
same,susceptibility to primary NK cell-mediated lysis,"[4]; HT29 and SW480 cells, IL-2-primed primary NK cells",markedly enhanced
same,susceptibility to NKL lysis,"[4]; all colon cancer cell lines, SPIR 56 μM",significantly increased
same,amount of soluble ULBP2,[5],did not reduce but rather moderately increased
same,MMP-1 activity,MMP-1,decrease of MMP-1 activity
same,"expression of Matrix Metalloproteinases (MMP-1, MMP-7, MMP-10, MMP-12, MMP-13)",[6],downregulates expression
